Consider 1 cell line from the supplement of paper PMC10307832.

Common to all, as to assay: relative viability (nuclei count vs DMSO), 5 days (fraction); higher = more cells survive
Compound in the test “Carfilzomib + Luminespib”: CC(C)C[C@H](NC(=O)[C@H](CCc1ccccc1)NC(=O)CN1CCOCC1)C(=O)N[C@@H](Cc1ccccc1)C(=O)N[C@@H](CC(C)C)C(=O)[C@@]1(C)CO1 [Carfilzomib] + CCNC(=O)c1noc(-c2cc(C(C)C)c(O)cc2O)c1-c1ccc(CN2CCOCC2)cc1 [Luminespib] (partner 0.01 µM)
The gist of the method:
(§1)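 Each reported value is a median over duplicate plates. It expresses relative viability: treated-well nuclei count divided by vehicle-well nuclei count. Lung cancer cell lines in 1536-well plates were dosed by pin tool a day after seeding, alone with one drug or with a fixed anchor-drug dose plus five library-drug doses (not always all listed) in √10 steps, and nuclei were counted after 5 days.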

Compound in the test “Carfilzomib + Linsitinib”: CC(C)C[C@H](NC(=O)[C@H](CCc1ccccc1)NC(=O)CN1CCOCC1)C(=O)N[C@@H](Cc1ccccc1)C(=O)N[C@@H](CC(C)C)C(=O)[C@@]1(C)CO1 [Carfilzomib] + C[C@]1(O)C[C@@H](c2nc(-c3ccc4ccc(-c5ccccc5)nc4c3)c3c(N)nccn32)C1 [Linsitinib] (partner 1 µM)
The gist of the method:
as §1

Compound in the test “Crizotinib + Linsitinib”: C[C@@H](Oc1cc(-c2cnn(C3CCNCC3)c2)cnc1N)c1c(Cl)ccc(F)c1Cl [Crizotinib] + C[C@]1(O)C[C@@H](c2nc(-c3ccc4ccc(-c5ccccc5)nc4c3)c3c(N)nccn32)C1 [Linsitinib] (partner 1 µM)
An outline of the steps:
as §1

Compound in the test “Crizotinib + Alpelisib”: C[C@@H](Oc1cc(-c2cnn(C3CCNCC3)c2)cnc1N)c1c(Cl)ccc(F)c1Cl [Crizotinib] + Cc1nc(NC(=O)N2CCC[C@H]2C(N)=O)sc1-c1ccnc(C(C)(C)C(F)(F)F)c1 [Alpelisib] (partner 2 µM)
The gist of the method:
as §1

Compound in the test “Crizotinib + Olaparib”: C[C@@H](Oc1cc(-c2cnn(C3CCNCC3)c2)cnc1N)c1c(Cl)ccc(F)c1Cl [Crizotinib] + O=C(c1cc(Cc2n[nH]c(=O)c3ccccc23)ccc1F)N1CCN(C(=O)C2CC2)CC1 [Olaparib] (partner 8 µM)
An outline of the steps:
as §1

For the cell line NCI-H1793, the relative viability with Carfilzomib + Luminespib (first compound 0.003162 µM) came out at 0.216; with Carfilzomib + Luminespib (first compound 0.01 µM) it was 0.172; with Carfilzomib + Luminespib (first compound 0.03162 µM), 0.181; in the test with Carfilzomib + Luminespib (first compound 0.1 µM), 0.154; with Carfilzomib + Linsitinib (first compound 0.003162 µM) it was 0.737; in the test with Carfilzomib + Linsitinib (first compound 0.01 µM), 0.761. Further, the relative viability in the test with Carfilzomib + Linsitinib (first compound 0.03162 µM) was 0.939; with Carfilzomib + Linsitinib (first compound 0.1 µM), 0.585; in the test with Crizotinib + Linsitinib (first compound 0.01 µM) it was 1.01; with Crizotinib + Linsitinib (first compound 0.03162 µM), 0.922; with Crizotinib + Linsitinib (first compound 0.1 µM), 0.837; with Crizotinib + Linsitinib (first compound 1 µM) it was 0.87. In addition, the relative viability with Crizotinib + Alpelisib (first compound 0.01 µM) stood at 0.703; in the test with Crizotinib + Alpelisib (first compound 0.03162 µM), 0.789; in the test with Crizotinib + Alpelisib (first compound 0.1 µM), 0.729; with Crizotinib + Alpelisib (first compound 1 µM) it was 0.872; with Crizotinib + Olaparib (first compound 0.1 µM), 0.835; with Crizotinib + Olaparib (first compound 1 µM), 0.903.
